Test results as given in patent US6872727B1, “Polycyclic pyrimidine -2,4(1H,3H)-diones with functionalized alkyl residues at the 1- and/or 3-position(s); methods for their synthesis and pharmaceutical preparation” (Privates Institut fur Biomedizinische Forschung und Beratung, priority 1999, dated 2005).

Legend:
[1] = target: T1, catalytic domain of human matrix metalloproteinase-8 (MMP-8; neutrophil collagenase) (Homo sapiens, UniProt P22894); test: Inhibition of catalytic domain of human MMP-8, fluorimetric assay, Dixon plot; assay type: biochemical; settings: recombinant catalytic domain, Mca-Pro-Leu-Gly-Leu-Dap(Dnp)-Ala-Arg-NH2 substrate
T1 construct: express heterologously only the catalytic domain, rather than the entire MMP-8, in Escherichia coli; made in house; host or cells: Escherichia coli
From the text: The catalytic domain of MMP-8 was chosen as a further test enzyme because of its high stability and constitutive activity, obviating the need for enzymatic or chemical activation, which is a well-known source of error, e.g. the commonly used organomercurial compounds used to activate pro-MMPs may interfere in subsequent assays or affect the activity of the enzyme, leading to erroneous interpretation of results. The cloning strategy was designed to express heterologously only the catalytic domain, rather than the entire MMP-8, in Escherichia coli. With the so-constructed expressed catalytic domain, we obtained a stable enzymatically active, highly pure enzyme that is well suited for routine investigation of the efficacy of the synthetic inhibitors and provides highly reproducible test results.
The cloning and expression of the recombinant catalytic domain of MMP-8 follows the protocol developed by Schnierer et al. (Schnierer, S., Kleine, T., Gote, T., Hilleman, A., Knäuper, V., and Tschesche, H., 1993, The recombinant catalytic domain of human neutrophil collagenase lacks type I collagen substrate specificity, Biochem. Biophys. Res. Commun. 191, 319-326).
(§1) The enzymatic cleavage of commercially available synthetic internally quenched fluorigenic peptide substrates such as 7-methylcoumarin-4-yl-acetyl-prolyleucyl-glycyl-leucyl-(dinitrophenyl-L-α,β-diaminopropionyl)-alanyl-arginylamide (Mca-Pro-Leu-Gly-Leu-Dap(Dnp)-Ala-Arg-NH2) at the scissile -Gly-Leu-peptide bond separates the fluorescent Mca group from the dinitrophenol quencher, resulting in a strong linear increase in fluorescence intensity that can be readily measured in a fluorimeter (λexitation328 nm, λemission 393 nm) over the first few minutes of the reaction. The specificity of the assay for matrix metalloproteinases is provided by the type I collagen-derived sequence -Pro-Leu-Gly-Leu- in the synthetic substrate, as well as by the incubation conditions. To test the efficacy of the synthetic collagenase/MMP inhibitors, the residual enzymatic activity remaining after an incubation of enzyme plus different amounts of inhibitor is measured at a fixed enzyme and substrate concentration. For each inhibitor, three test series at different fixed substrate concentrations were carried out. From the time-dependent increase in fluorescence intensity measured, the velocity (v) of the enzymatic activity can be calculated as increase in arbitrary fluorescence intensity units per minute. The inhibition constant Ki is calculated graphically by the method of Dixon (1953) by plotting the reciprocal of the reaction velocity 1/v on the ordinate, and the inhibitor concentration on the abscissa. The x-intercept of the linear plot is defined as minus K1 value.
1984 μl assay buffer (100 mM Tris-HCl pH 7,5, 100 mM NaCl, 10 mM CaCl2, 0,05% Brij 35) • 2 μl inhibitor dissolved in DMSO, or DMSO alone as a solvent control • 4 μl enzyme (MMP-2, MMP-9, or the catalytic domain of MMP-8) • 10 μl Mca-Pro-Leu-Gly-Leu-Dap(Dnp)-Ala-Arg-NH2 in DMSO Method • 1. Incubate buffer, enzyme, and inhibitor for 5 min at room temperature, with stirring. • 2. Start the reaction by adding 10 μl substrate in DMSO • 3. Record the increase in fluorescence intensity over 2 min. Confirmation of the Inhibitory Activity by Protein Zymographic Analysis

[2] = target: T2, human matrix metalloproteinase-2 (MMP-2; gelatinase A) (Homo sapiens, UniProt P08253); test: Inhibition of human matrix metalloproteinase-2 (gelatinase A); assay type: biochemical; settings: trypsin-activated MMP-2 from human dermal fibroblast culture supernatant; read-out: MMP-2 (50% inhibition)
T2 construct: to prepare the enzymatically active mature form of the enzyme; endogenous in cells; host or cells: human dermal fibroblasts (secreted into culture supernatant)
T2 sequence (P08253 110-660): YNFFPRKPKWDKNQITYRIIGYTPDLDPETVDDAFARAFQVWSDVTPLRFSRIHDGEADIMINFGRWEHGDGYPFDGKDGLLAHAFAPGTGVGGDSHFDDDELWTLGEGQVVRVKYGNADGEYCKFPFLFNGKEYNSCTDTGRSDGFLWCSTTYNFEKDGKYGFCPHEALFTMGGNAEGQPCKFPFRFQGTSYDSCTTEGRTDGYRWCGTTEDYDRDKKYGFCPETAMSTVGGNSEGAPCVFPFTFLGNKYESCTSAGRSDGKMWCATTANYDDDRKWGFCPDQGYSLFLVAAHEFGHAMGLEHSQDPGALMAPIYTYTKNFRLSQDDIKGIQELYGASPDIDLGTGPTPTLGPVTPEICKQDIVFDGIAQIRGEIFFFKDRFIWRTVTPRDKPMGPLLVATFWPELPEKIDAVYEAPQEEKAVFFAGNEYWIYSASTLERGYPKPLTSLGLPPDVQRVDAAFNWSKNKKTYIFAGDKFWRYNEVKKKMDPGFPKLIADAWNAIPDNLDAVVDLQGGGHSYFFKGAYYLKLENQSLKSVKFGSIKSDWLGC
From the text: MMP-2 is easily prepared by standard procedures from the culture medium of cultivated human fibroblasts in reasonable quantities, and is therefore readily available. […] A screening system based on the measurement of the proteolytic activity of MMP-2 was developed to analyse the inhibitory effects of the various inhibitors described in Table 1.
To this end, human dermal fibroblasts were obtained and maintained in culture using standard methods. The cell-free culture supernatant containing the secreted pro-MMP-2 was treated with trypsin. The trypsin was inactivated with the specific active-site serine proteinase inhibitor Nα-p-tosyl-L-lysine-chloromethylketone (TLCK), and the active MMP-2 was partially purified by gel filtration on Sepharose 4B. The isolated MMP-2 was identified and characterized by the use of a commercially available immunoassay.
A simple nonradioactive assay was developed to measure MMP-2 activity using gelatin as a substrate that allows both a large number of samples to be analysed in parallel and to generate kinetic data. Partially purified MMP-2 was incubated with a suitable dilution of gelatin under standardized conditions (time, buffer, pH, temperature, inhibitor, additives), and uncleaved gelatin was separated from degradation products by suction filtration through a nitrocellulose filter. High-molecular-weight gelatin is thereby bound to the nitrocellulose filter, and the low-molecular-weight gelatin-derived peptides pass through it. The nitrocellulose-bound gelatin can be stained with Ponceau S or Commassie Brilliant Blue protein stains, and the degree of staining quantified densitometrically using a commercially available electrophoresis gel documentation system supported by dedicated analytical software. The nitrocellulose filtration is conducted using a commercially available dot- or slot-blotting apparatus.
The gelatinase assay described here has been validated by comparison with results obtained with an established collagenase assay using radioactive or fluorescently labeled collagen as substrate.
as §1
1984 μl assay buffer (100 mM Tris-HCl pH 7,5, 100 mM NaCl, 10 mM CaCl2, 0,05% Brij 35) • 2 μl inhibitor dissolved in DMSO, or DMSO alone as a solvent control • 4 μl enzyme (MMP-2, MMP-9, or the catalytic domain of MMP-8) • 10 μl Mca-Pro-Leu-Gly-Leu-Dap(Dnp)-Ala-Arg-NH2 in DMSO Method • 1. […]

T1 sequence (P22894 100-262 limits assumed): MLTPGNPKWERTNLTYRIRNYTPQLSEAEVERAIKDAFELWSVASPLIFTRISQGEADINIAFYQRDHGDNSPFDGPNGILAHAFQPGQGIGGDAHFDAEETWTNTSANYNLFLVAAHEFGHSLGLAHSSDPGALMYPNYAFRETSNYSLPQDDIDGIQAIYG

Row | MMP-8 (Ki value) [1] | Structure (SMILES) | Ki [1] [µM] | IC50 [2] [µM]
1 |  | CC(S)CCn1c(=O)[nH]c(=O)c2ccccc21 (racemic) [Example 3, (R,S)-1-(3-mercaptobut-1-yl)-chinazolin-2,4(1H,3H)-dione] | 38.5 | 13.2
2 |  | CC(CCS)n1c(=O)[nH]c2ccccc2c1=O (racemic) [Example 18, (R,S)-3-[3-(1-methyl)-mercaptopropyl]-chinazolin-2,4(1H,3H)-dione] | 6 | 8.3
3 |  | O=c1[nH]c(=O)n(CCCS)c2ccccc12 [Example 4, 1-(3-mercaptopropyl)-chinazolin-2,4(1H,3H)-dione] | 7 | 5
4 |  | O=c1[nH]c(=O)n(CCS)c2ccccc12 [Example 5, 1-(2-mercaptoethyl)-chinazolin-2,4(1H,3H)-dione] | 70 | 61.3
5 |  | O=c1[nH]c2ccccc2c(=O)n1CCCCS [Example 12, 3-(4-mercaptobut-1-yl)-chinazolin-2,4(1H,3H)-dione] | 11 | 8.3
6 | negative | Cn1c(=O)c2sccc2n(CCCS)c1=O [Example 14, 1-(3-mercaptoprop-1-yl)-3-methyl-thieno(3,2-d)-pyrimidin-2,4(1H,3H)-dione] |  | 20
7 | negative | Cn1c(=O)c2sccc2n(CCS)c1=O [Example 17, 1-(2-mercaptoethyl)-3-methyl-thieno[3,2-d]-pyrimidine-2,4(1H,3H)-dione] |  | 20

Row | Structure (SMILES) | MMP-8 (Ki value) [1] | Ki [1] [µM] | IC50 [2] [µM]
8 | Cn1c(=O)c2ccccc2n(CCCS)c1=O [Example 7, 1-(3-mercaptoprop-1-yl)-3-methyl-chinazolin-2,4(1H,3H)-dione] | negative |  | 6
